According to the supplement of paper PMC10307832:

Assays:
Assay in all cases: relative viability (nuclei count vs DMSO), 5 days (fraction); higher = more cells survive
[1] = compound: CN1CCN(c2ccc3nc(-c4c(N)c5c(F)cccc5[nH]c4=O)[nH]c3c2)CC1 [Dovitinib] + CC(=O)Nc1cccc(-n2c(=O)n(C3CC3)c(=O)c3c(Nc4ccc(I)cc4F)n(C)c(=O)c(C)c32)c1 [Trametinib] (partner 0.02 µM)
In short: (§1)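 The day after seeding in 1536-well plates, lung cancer cell lines were treated by pin tool with a single drug, or with a fixed anchor-drug dose together with five library-drug doses (not always all listed) in √10 steps. After 5 days, a combined fix-and-stain solution (final 0.05% Triton X-100, 1% formaldehyde, 1 ug/ml Hoechst) was added. Nuclei counted on 4× images gave relative viability as treated counts over vehicle counts, reported as the median of duplicate plates.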

[2] = compound: CN1CCN(c2ccc3nc(-c4c(N)c5c(F)cccc5[nH]c4=O)[nH]c3c2)CC1 [Dovitinib] + CC1(C)CCC(c2ccc(Cl)cc2)=C(CN2CCN(c3ccc(C(=O)NS(=O)(=O)c4ccc(N[C@H](CCN5CCOCC5)CSc5ccccc5)c(S(=O)(=O)C(F)(F)F)c4)cc3)CC2)C1 [Navitoclax] (partner 0.5 µM)
In short: as §1

[3] = compound: CN1CCN(c2ccc3nc(-c4c(N)c5c(F)cccc5[nH]c4=O)[nH]c3c2)CC1 [Dovitinib] + N=C(N)NC(=N)NCCc1ccccc1 [Phenformin] (partner 250 µM)
In short: as §1

[4] = compound: CN1CCN(c2ccc3nc(-c4c(N)c5c(F)cccc5[nH]c4=O)[nH]c3c2)CC1 [Dovitinib] + Nc1nc2[nH]cc(CCc3ccc(C(=O)N[C@@H](CCC(=O)O)C(=O)O)cc3)c2c(=O)[nH]1 [Pemetrexed] (partner 0.2 µM)
In short: as §1

| Cell Line | relative viability ([1]; first compound 0.02 µM) | relative viability ([1]; first compound 0.06325 µM) | relative viability ([1]; first compound 0.2 µM) | relative viability ([1]; first compound 0.6325 µM) | relative viability ([1]; first compound 2 µM) | relative viability ([2]; first compound 0.02 µM) | relative viability ([2]; first compound 0.06325 µM) | relative viability ([2]; first compound 0.2 µM) | relative viability ([2]; first compound 0.6325 µM) | relative viability ([2]; first compound 2 µM) | relative viability ([3]; first compound 0.02 µM) | relative viability ([3]; first compound 0.06325 µM) | relative viability ([3]; first compound 0.2 µM) | relative viability ([3]; first compound 0.6325 µM) | relative viability ([3]; first compound 2 µM) | relative viability ([4]; first compound 0.02 µM) | relative viability ([4]; first compound 0.06325 µM) | relative viability ([4]; first compound 0.2 µM) | relative viability ([4]; first compound 0.6325 µM) | relative viability ([4]; first compound 2 µM) |
| --- | --- | --- | --- | --- | --- | --- | --- | --- | --- | --- | --- | --- | --- | --- | --- | --- | --- | --- | --- | --- |
| HCC-15 | 0.434 | 0.342 | 0.369 | 0.341 | 0.377 | 0.777 | 0.701 | 0.707 | 0.708 | 0.7 | 0.482 | 0.475 | 0.502 | 0.436 | 0.472 | 0.225 | 0.228 | 0.213 | 0.231 | 0.216 |
| NCI-H2170 | 0.928 | 0.92 | 1.04 | 0.866 | 0.945 | 0.58 | 0.63 | 0.756 | 0.531 | 0.612 | 0.357 | 0.43 | 0.448 | 0.338 | 0.452 | 0.267 | 0.33 | 0.267 | 0.265 | 0.281 |
| PC-3 [JPC-3] | 0.767 | 0.675 | 0.731 | 0.738 | 0.715 | 0.834 | 0.841 | 0.861 | 0.802 | 0.777 | 0.486 | 0.494 | 0.467 | 0.474 | 0.474 | 1.12 | 1.12 | 1.16 | 1.3 | 1.21 |
| NCI-H1993 | 0.517 | 0.481 | 0.489 | 0.58 | 0.502 | 1.07 | 0.963 | 0.965 | 1.02 | 0.934 | 0.483 | 0.516 | 0.496 | 0.499 | 0.505 | 0.665 | 0.521 | 0.633 | 0.594 | 0.486 |
| NCI-H1915 | 0.275 | 0.282 | 0.306 | 0.283 | 0.319 | 0.797 | 0.749 | 0.767 | 0.752 | 0.801 | 0.361 | 0.38 | 0.365 | 0.358 | 0.379 | 0.459 | 0.466 | 0.536 | 0.473 | 0.467 |
| RERF-LC-KJ | 0.928 | 0.837 | 1.01 | 0.869 | 0.864 | 0.794 | 1.06 | 1.1 | 1.15 | 1.09 | 0.412 | 0.417 | 0.447 | 0.42 | 0.384 | 0.47 | 0.49 | 0.483 | 0.475 | 0.47 |
| LOU-NH91 | 0.81 | 0.784 | 0.798 | 0.82 | 0.815 | 0.687 | 0.72 | 0.684 | 0.7 | 0.804 | 0.826 | 0.666 | 0.748 | 0.785 | 0.775 | 0.368 | 0.386 | 0.404 | 0.363 | 0.358 |
| NCI-H2347 | 0.284 | 0.289 | 0.286 | 0.277 | 0.271 | 0.892 | 0.812 | 0.86 | 0.707 | 0.932 | 0.294 | 0.381 | 0.378 | 0.43 | 0.376 | 0.479 | 0.53 | 0.415 | 0.467 | 0.475 |
| NCI-H2126 | 0.576 | 0.56 | 0.569 | 0.598 | 0.522 | 0.857 | 0.886 | 0.874 | 0.81 | 0.873 | 0.524 | 0.504 | 0.582 | 0.536 | 0.581 | 0.734 | 0.653 | 0.676 | 0.705 | 0.711 |
| HCC-827 | 0.553 | 0.553 | 0.565 | 0.603 | 0.57 | 1.03 | 1.02 | 1.07 | 1 | 0.974 | 0.395 | 0.402 | 0.426 | 0.41 | 0.405 | 0.259 | 0.119 | 0.245 | 0.264 | 0.25 |
| NCI-H3122 | 0.217 | 0.226 | 0.231 | 0.234 | 0.248 | 1.05 | 1.03 | 0.954 | 1.02 | 1.07 | 0.34 | 0.362 | 0.414 | 0.33 | 0.385 | 0.194 | 0.207 | 0.199 | 0.186 | 0.189 |
| HOP-62 | 0.368 | 0.386 | 0.397 | 0.392 | 0.352 | 0.95 | 0.995 | 1.01 | 1.1 | 1.08 | 0.616 | 0.713 | 0.742 | 0.55 | 0.646 | 0.272 | 0.337 | 0.32 | 0.269 | 0.385 |
| HCC-44 | 1.06 | 1.07 | 1.1 | 1.07 | 1.02 | 0.954 | 0.925 | 0.923 | 0.974 | 0.876 | 0.294 | 0.138 | 0.174 | 0.229 | 0.197 | 0.617 | 0.659 | 0.685 | 0.687 | 0.586 |
